How the values were obtained:
[1] = Biodistribution: organ distribution of F-18 signal in mice; assay type: in vivo, male NMRI mice; settings: for Organ distribution of F-18 signal, intestine: intestine (with content); for Organ distribution of F-18 signal, stomach: stomach (without content)
Outline: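 Male NMRI mice (~30 g, 3 per time point) received ca. 150 kBq of the test compound i.v. via tail vein. At 2, 5, 30, 60 and 240 min, urine and feces were collected and organs and tissues taken for gamma counting. Values are decay-corrected % ID/g ± SD.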

Aβ plaques = biological target: T1, Aβ plaques (Homo sapiens, UniProt P05067); assay: Autoradiographical analysis of binding to cryosections from cortex of AD patients and controls; settings: F-18 labeled compound; Alzheimer's disease patients (AD) vs controls without Aβ plaques
T1 construct: controls without Aβ plaques; from tissue; host or cells: frontal lobe / cortex sections (frozen and paraffin) from AD patients, FTD patients and age-matched controls
Outline: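 Frozen (18 μm) and deparaffinized paraffin (6 μm) frontal-lobe sections from Alzheimer's, frontotemporal dementia and age-matched control brains were incubated 1.5 h at room temperature with F-18 test compound at 10 Bq/μl in 25 mM Hepes pH 7.4, 0.1% BSA. Blocking used 1000-fold excess unlabeled compound; phosphoimager readout.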

T1 sequence (P05067 672-713 limits assumed): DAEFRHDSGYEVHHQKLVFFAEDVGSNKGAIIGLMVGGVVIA

O=C(NCC(=O)N1CCN(c2ccc(OCc3ccccc3)cc2)CC1)c1ccc([18F])nc1 [Example 10e, N-{2-[4-(4-Benzyloxy-phenyl)-piperazin-1-yl]-2-oxoethyl}-6-[F-18]-fluoro-nicotinamide]
Organ distribution of F-18 signal, adrenals ([1]; 2 min post i.v. injection): 7.86 % ID/g
Organ distribution of F-18 signal, adrenals ([1]; 5 min post i.v. injection): 6.20 % ID/g
Organ distribution of F-18 signal, adrenals ([1]; 30 min post i.v. injection): 2.36 % ID/g
Organ distribution of F-18 signal, adrenals ([1]; 60 min post i.v. injection): 0.67 % ID/g
Organ distribution of F-18 signal, adrenals ([1]; 240 min post i.v. injection): 0.43 % ID/g
Organ distribution of F-18 signal, blood ([1]; 2 min post i.v. injection): 2.01 % ID/g
Organ distribution of F-18 signal, blood ([1]; 5 min post i.v. injection): 1.98 % ID/g
Organ distribution of F-18 signal, blood ([1]; 30 min post i.v. injection): 1.38 % ID/g
Organ distribution of F-18 signal, blood ([1]; 60 min post i.v. injection): 0.55 % ID/g
Organ distribution of F-18 signal, blood ([1]; 240 min post i.v. injection): 0.09 % ID/g
Organ distribution of F-18 signal, brain ([1]; 2 min post i.v. injection): 4.99 % ID/g
Organ distribution of F-18 signal, brain ([1]; 5 min post i.v. injection): 4.33 % ID/g
Organ distribution of F-18 signal, brain ([1]; 30 min post i.v. injection): 1.44 % ID/g
Organ distribution of F-18 signal, brain ([1]; 60 min post i.v. injection): 0.44 % ID/g
Organ distribution of F-18 signal, brain ([1]; 240 min post i.v. injection): 0.04 % ID/g
Organ distribution of F-18 signal, fat ([1]; 2 min post i.v. injection): 1.79 % ID/g
Organ distribution of F-18 signal, fat ([1]; 5 min post i.v. injection): 2.66 % ID/g
Organ distribution of F-18 signal, fat ([1]; 30 min post i.v. injection): 1.95 % ID/g
Organ distribution of F-18 signal, fat ([1]; 60 min post i.v. injection): 0.67 % ID/g
Organ distribution of F-18 signal, fat ([1]; 240 min post i.v. injection): 0.15 % ID/g
Organ distribution of F-18 signal, femur ([1]; 2 min post i.v. injection): 1.44 % ID/g
Organ distribution of F-18 signal, femur ([1]; 5 min post i.v. injection): 1.53 % ID/g
Organ distribution of F-18 signal, femur ([1]; 30 min post i.v. injection): 1.15 % ID/g
Organ distribution of F-18 signal, femur ([1]; 60 min post i.v. injection): 1.43 % ID/g
Organ distribution of F-18 signal, femur ([1]; 240 min post i.v. injection): 1.75 % ID/g
Organ distribution of F-18 signal, heart ([1]; 2 min post i.v. injection): 5.18 % ID/g
Organ distribution of F-18 signal, heart ([1]; 5 min post i.v. injection): 4.49 % ID/g
Organ distribution of F-18 signal, heart ([1]; 30 min post i.v. injection): 1.85 % ID/g
Organ distribution of F-18 signal, heart ([1]; 60 min post i.v. injection): 0.69 % ID/g
Organ distribution of F-18 signal, heart ([1]; 240 min post i.v. injection): 0.11 % ID/g
Organ distribution of F-18 signal, intestine ([1]; 2 min post i.v. injection): 2.13 % ID/g
Organ distribution of F-18 signal, intestine ([1]; 5 min post i.v. injection): 2.40 % ID/g
Organ distribution of F-18 signal, intestine ([1]; 30 min post i.v. injection): 8.20 % ID/g
Organ distribution of F-18 signal, intestine ([1]; 60 min post i.v. injection): 10.63 % ID/g
Organ distribution of F-18 signal, intestine ([1]; 240 min post i.v. injection): 6.90 % ID/g
Organ distribution of F-18 signal, kidney ([1]; 2 min post i.v. injection): 8.58 % ID/g
Organ distribution of F-18 signal, kidney ([1]; 5 min post i.v. injection): 7.92 % ID/g
Organ distribution of F-18 signal, kidney ([1]; 30 min post i.v. injection): 6.29 % ID/g
Organ distribution of F-18 signal, kidney ([1]; 60 min post i.v. injection): 2.61 % ID/g
Organ distribution of F-18 signal, kidney ([1]; 240 min post i.v. injection): 0.50 % ID/g
Organ distribution of F-18 signal, liver ([1]; 2 min post i.v. injection): 7.44 % ID/g
Organ distribution of F-18 signal, liver ([1]; 5 min post i.v. injection): 12.02 % ID/g
Organ distribution of F-18 signal, liver ([1]; 30 min post i.v. injection): 9.60 % ID/g
Organ distribution of F-18 signal, liver ([1]; 60 min post i.v. injection): 5.27 % ID/g
Organ distribution of F-18 signal, liver ([1]; 240 min post i.v. injection): 2.29 % ID/g
Organ distribution of F-18 signal, lung ([1]; 2 min post i.v. injection): 4.31 % ID/g
Organ distribution of F-18 signal, lung ([1]; 5 min post i.v. injection): 3.86 % ID/g
Organ distribution of F-18 signal, lung ([1]; 30 min post i.v. injection): 1.93 % ID/g
Organ distribution of F-18 signal, lung ([1]; 60 min post i.v. injection): 0.89 % ID/g
Organ distribution of F-18 signal, lung ([1]; 240 min post i.v. injection): 0.10 % ID/g
Organ distribution of F-18 signal, muscle ([1]; 2 min post i.v. injection): 2.40 % ID/g
Organ distribution of F-18 signal, muscle ([1]; 5 min post i.v. injection): 2.07 % ID/g
Organ distribution of F-18 signal, muscle ([1]; 30 min post i.v. injection): 1.16 % ID/g
Organ distribution of F-18 signal, muscle ([1]; 60 min post i.v. injection): 0.34 % ID/g
Organ distribution of F-18 signal, muscle ([1]; 240 min post i.v. injection): 0.06 % ID/g
Organ distribution of F-18 signal, pancreas ([1]; 2 min post i.v. injection): 4.59 % ID/g
Organ distribution of F-18 signal, pancreas ([1]; 5 min post i.v. injection): 4.54 % ID/g
Organ distribution of F-18 signal, pancreas ([1]; 30 min post i.v. injection): 2.27 % ID/g
Organ distribution of F-18 signal, pancreas ([1]; 60 min post i.v. injection): 0.92 % ID/g
Organ distribution of F-18 signal, pancreas ([1]; 240 min post i.v. injection): 1.07 % ID/g
Organ distribution of F-18 signal, skin ([1]; 2 min post i.v. injection): 1.37 % ID/g
Organ distribution of F-18 signal, skin ([1]; 5 min post i.v. injection): 1.76 % ID/g
Organ distribution of F-18 signal, skin ([1]; 30 min post i.v. injection): 1.39 % ID/g
Organ distribution of F-18 signal, skin ([1]; 60 min post i.v. injection): 0.51 % ID/g
Organ distribution of F-18 signal, skin ([1]; 240 min post i.v. injection): 0.08 % ID/g
Organ distribution of F-18 signal, spleen ([1]; 2 min post i.v. injection): 1.96 % ID/g
Organ distribution of F-18 signal, spleen ([1]; 5 min post i.v. injection): 1.99 % ID/g
Organ distribution of F-18 signal, spleen ([1]; 30 min post i.v. injection): 1.08 % ID/g
Organ distribution of F-18 signal, spleen ([1]; 60 min post i.v. injection): 0.35 % ID/g
Organ distribution of F-18 signal, spleen ([1]; 240 min post i.v. injection): 0.06 % ID/g
Organ distribution of F-18 signal, stomach ([1]; 2 min post i.v. injection): 3.69 % ID/g
Organ distribution of F-18 signal, stomach ([1]; 5 min post i.v. injection): 2.84 % ID/g
Organ distribution of F-18 signal, stomach ([1]; 30 min post i.v. injection): 2.40 % ID/g
Organ distribution of F-18 signal, stomach ([1]; 60 min post i.v. injection): 1.09 % ID/g
Organ distribution of F-18 signal, stomach ([1]; 240 min post i.v. injection): 0.50 % ID/g
Organ distribution of F-18 signal, tail ([1]; 2 min post i.v. injection): 8.65 % ID/g
Organ distribution of F-18 signal, tail ([1]; 5 min post i.v. injection): 6.65 % ID/g
Organ distribution of F-18 signal, tail ([1]; 30 min post i.v. injection): 1.86 % ID/g
Organ distribution of F-18 signal, tail ([1]; 60 min post i.v. injection): 1.00 % ID/g
Organ distribution of F-18 signal, tail ([1]; 240 min post i.v. injection): 0.69 % ID/g
Organ distribution of F-18 signal, testicle ([1]; 2 min post i.v. injection): 1.53 % ID/g
Organ distribution of F-18 signal, testicle ([1]; 5 min post i.v. injection): 1.81 % ID/g
Organ distribution of F-18 signal, testicle ([1]; 30 min post i.v. injection): 1.28 % ID/g
Organ distribution of F-18 signal, testicle ([1]; 60 min post i.v. injection): 0.52 % ID/g
Organ distribution of F-18 signal, testicle ([1]; 240 min post i.v. injection): 0.06 % ID/g
Organ distribution of F-18 signal, thyroid ([1]; 2 min post i.v. injection): 2.51 % ID/g
Organ distribution of F-18 signal, thyroid ([1]; 5 min post i.v. injection): 2.62 % ID/g
Organ distribution of F-18 signal, thyroid ([1]; 30 min post i.v. injection): 1.26 % ID/g
Organ distribution of F-18 signal, thyroid ([1]; 60 min post i.v. injection): 0.56 % ID/g
Organ distribution of F-18 signal, thyroid ([1]; 240 min post i.v. injection): 0.35 % ID/g
autoradiographical analysis of binding to cryosections from cortex (Aβ plaques): Specific binding in plaque-rich regions of AD samples
